Laboratory results taken from paper PMC4301629 (PLoS ONE, 2015).

How the values were obtained:
HEK293/EBNA cells = assay: IP accumulation (IP-One HTRF) in untransduced HEK-293/EBNA cells; type: cell-based; details: HEK293/EBNA untransduced
α1A-AR [1] = biological target: T1, α1A-AR (Homo sapiens, UniProt P35348); assay: LC-MS detection of IP1, IP2 and IP3 in α1A-AR_CHO stable cells; type: cell-based; design: expressed in transfected cells; details: α1A-AR CHO, Iso up to 1 mM
T1 sequence (P35348 1-466): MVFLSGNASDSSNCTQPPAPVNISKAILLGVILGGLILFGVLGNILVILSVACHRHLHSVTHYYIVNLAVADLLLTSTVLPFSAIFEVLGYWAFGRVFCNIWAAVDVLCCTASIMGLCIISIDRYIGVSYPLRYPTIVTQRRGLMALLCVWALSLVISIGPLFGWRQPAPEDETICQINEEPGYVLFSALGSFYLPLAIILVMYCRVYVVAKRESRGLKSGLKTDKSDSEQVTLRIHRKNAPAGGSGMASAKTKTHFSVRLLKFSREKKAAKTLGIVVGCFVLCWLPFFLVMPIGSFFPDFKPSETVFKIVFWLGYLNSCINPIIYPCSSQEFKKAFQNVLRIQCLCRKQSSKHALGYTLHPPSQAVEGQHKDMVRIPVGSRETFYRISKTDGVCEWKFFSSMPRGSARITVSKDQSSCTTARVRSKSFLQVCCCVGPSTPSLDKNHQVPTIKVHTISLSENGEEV
Experimental: (§1) After that, the medium was replaced with agonist solution in assay buffer (20 mM HEPES, 10 mM glucose, 1.8 mM CaCl2, 0.5 mM MgSO4, in HBSS 1X buffer, 50 mM LiCl) and cells were incubated at 37°C for 30 min. Stimulation was stopped by exchange of assay buffer with lysis buffer (100 μL 0.1N HCl/MeOH), and lysis proceeded for 30 min at 4°C. Cellular levels of inositol phosphates were determined using a Thermo LC-MS detection system following a published protocol. Chromatography was performed employing a BioBasic column AX (50 × 2.1 mm, Thermo). The mobile phase consisted of solvent A: 10 mM ammonium acetate, pH 6 in 30/70 acetonitrile/water, and solvent B: 1 mM ammonium acetate, pH 11 in 30/70 acetonitrile/water. A gradient solvent system was used starting with 0% solvent B, and analytes were eluted by increasing solvent B to 100% over 3 min. Each data point represents the average of triplicate determinations and each experiment was performed at least three times independently.
IP1, IP2, and IP3 levels were determined via LC-MS. Plots are representative of three independent experiments with each data point being the average of triplicates.

α1A-AR [2] = biological target: T1, α1A-AR; assay: Ca2+ transient response (FLIPR, fluo3) in α1A-AR transduced HEK-293/EBNA cells; type: cell-based; design: expressed in transfected cells; host or cells: HEK-293/EBNA (baculovirus transduction, NaBu induction); details: 100 nM NE, α1A-AR_HEK-293/EBNA
Experimental: (§2) Prior to experiments, cells were transduced with baculovirus strains designed for transient expression of α1A-AR or aldehyde oxidase (negative control). This was performed by incubating cells with virus (MOI 100–150) for 3 to 4 h, followed by exchange into fresh serum free growth medium supplemented with 4 mM sodium butyrate (NaBu). Cells were grown for another 14 to 18 h and then examined for agonist-evoked responses in transient Ca^2+ release, IP accumulation or pERK activation assays. The surface receptor expression density was determined by flow cytometry via immunofluorescence labeling of an N-terminal HA epitope tag on the receptor and radioligand binding in partially purified membranes.
(§3) Cells were resuspended in Hank’s balanced salt solution (Invitrogen) supplemented with 2 mM CaCl2, 10 mM HEPES pH 7.4, 2.5 mM probenecid, plus 1g/L each of glucose and bovine serum albumin (BSA), and seeded in poly-D-lysine coated 96-well black plates with transparent bottom (Costar) at a density of 50,000 cells/0.1 mL per well. Cells were then incubated for 1 h at 37°C with an additional 0.1 mL of buffer containing 4 μM fluo3-AM that was diluted from a stock solution containing 1 mM fluo3-AM dye in DMSO with 10% pluronic acid. After dye loading incubation, plates were washed twice with 100 μL of buffer and refilled with 100 μL of assay buffer. In experiments testing the effect of antagonists, 25 μL of buffer from wells of washed cells were replaced with 25 μL of vehicle or 4× antagonist solution. Pre-incubation of ligand with dye-loaded cells proceeded for 5–30 minutes immediately prior to measurements of agonist-evoked responses. Agonist-evoked Ca^2+ mobilization responses of cell populations were monitored at room temperature simultaneously in all wells of the assay plate using the plate-imaging fluorometric reader FLIPR (MDS Analytical Technologies, Sunnyvale, CA). […] The amplitudes of Ca^2+ transient responses are reported as ΔF/F0, or fold-change in Ca^2+ dye fluorescence relative to the baseline signal ΔF/F0 = (F-F0)/F0 +1 (where ΔF is maximal fluorescence intensity observed following agonist application, F0 = baseline fluorescence, or average intensity measured over the 10 s interval prior to agonist application). Image acquisition rates were varied from 1 Hz during the first 100 s of measurements to 0.5 Hz for the remaining time of the recording.
(§4) Graphs shown reflect either pooled or representative data (see figure legends). For concentration-response analysis, results from Ca^2+ mobilization experiments were plotted as ΔF/F0 vs. agonist concentration and fit to a sigmoidal concentration-response equation using the GraphPad Prism software package. In cases where biphasic concentration-response curves were observed data were fit to a two-site concentration-response model: F(X)=R0+(Rmax−R0)[Fr1/(1+10^X-logEC50,1)+(1−Fr1)/(1+10^X-logEC50,2)] (1) , where X is the logarithm of the agonist concentration, R0 and Rmax are respectively the response minimum and maximum; Fr1 is the response fraction attributable to receptor characterized by half effective concentration of the first response phase (EC50,1), with the reminder response attributable to the second half effective concentration (EC50,2). For radioligand binding experiments, B max values were calculated from maximum binding using the equation B max = (SB × ([…] + [L])/[L]), where SB is the specific binding expressed as fmol per mg of membrane protein, and [L] is the ligand concentration.

α1A-AR [3] = biological target: T1, α1A-AR; assay: LC-MS detection of IP1, IP2 and IP3 in α1A-AR transduced HEK-293/EBNA cells; type: cell-based; design: expressed in transfected cells; host or cells: HEK-293/EBNA (baculovirus transduction, NaBu induction); details: Iso up to 10 mM
Experimental: as §1, with “Virally transduced HEK-293/EBNA cells were resuspended in growth medium and seeded in poly-D-lysine coated 96-well black plates at a density of 100,000 cells/0.1 mL per well, Cells were allowed to attach for 2 hours at 37°C in a humidified atmosphere of 95% air and 5% CO2. After” for “After”

α1A-AR [4] = assay: Ca2+ transient response (FLIPR, fluo3) in α1A-AR transduced HEK-293/EBNA cells; type: cell-based; details: α1A-AR HEK-293/EBNA; RS100329 10 nM, ICI 118551 10 nM, atenolol 1 μM
Experimental: as §2, §3, §4

β2-AR = biological target: T2, β2-AR (Homo sapiens, UniProt P07550); assay: Ca2+ transient response (FLIPR, fluo3) in untransduced / negative control HEK-293/EBNA cells; type: cell-based; details: non-transduced control cells; ICI 118551 10 nM, RS100329 10 nM, atenolol 1 μM
T2 construct: HEK-293/EBNA cells are known to express β2-AR endogenously; endogenous in cells; host or cells: HEK-293/EBNA (untransduced or negative-control transduced)
T2 sequence (P07550 whole entry): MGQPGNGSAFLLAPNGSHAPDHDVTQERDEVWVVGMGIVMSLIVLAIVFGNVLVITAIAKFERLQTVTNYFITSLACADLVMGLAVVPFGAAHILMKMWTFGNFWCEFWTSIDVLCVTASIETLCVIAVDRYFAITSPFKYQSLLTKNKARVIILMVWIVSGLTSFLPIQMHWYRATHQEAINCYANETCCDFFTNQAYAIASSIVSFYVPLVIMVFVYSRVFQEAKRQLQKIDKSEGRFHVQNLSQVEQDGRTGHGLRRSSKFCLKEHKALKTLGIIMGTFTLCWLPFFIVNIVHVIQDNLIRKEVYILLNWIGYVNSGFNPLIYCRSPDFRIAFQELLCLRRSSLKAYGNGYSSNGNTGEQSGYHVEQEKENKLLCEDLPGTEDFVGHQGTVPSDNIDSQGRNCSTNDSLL
Experimental: as §2
Cells were resuspended in Hank’s balanced salt solution (Invitrogen) supplemented with 2 mM CaCl2, 10 mM HEPES pH 7.4, 2.5 mM probenecid, plus 1g/L each of glucose and bovine serum albumin (BSA), and seeded in poly-D-lysine coated 96-well black plates with transparent bottom (Costar) at a density of 50,000 cells/0.1 mL per well. […] Agonist-evoked Ca^2+ mobilization responses of cell populations were monitored at room temperature simultaneously in all wells of the assay plate using the plate-imaging fluorometric reader FLIPR (MDS Analytical Technologies, Sunnyvale, CA). […]

α1A-AR [5] = details: for α1A-AR; cited from earlier work
α1A-AR [6] = biological target: T1, α1A-AR; assay: Ca2+ transient response (FLIPR) in α1A-AR_CHO stable cells; type: cell-based; design: expressed in transfected cells; details: antagonist at 100 nM
Experimental: as §3, with “In experiments testing the effect of antagonists, 25 μL of buffer from wells of washed cells were replaced with 25 μL of vehicle or 4× antagonist solution. Pre-incubation of ligand with dye-loaded cells proceeded for 5–30 minutes immediately prior to measurements of agonist-evoked responses.” left out, “Image acquisition rates were varied from 1 Hz during the first 100 s of measurements to 0.5 Hz for the remaining time of the recording.” left out
IP1, IP2, and IP3 levels were determined via LC-MS. […]

α1A-AR [7] = biological target: T1, α1A-AR; assay: IP accumulation (IP-One HTRF) in α1A-AR transduced HEK-293/EBNA cells; type: cell-based; design: expressed in transfected cells; host or cells: HEK-293/EBNA (baculovirus transduction, NaBu induction); details: 10 nM antagonist preincubation; large rightward shift in A-61603 potency
Experimental: as §2
After 10–20 minutes, 10 μL of agonist was added followed by incubation for 5 to 30 minutes. Stimulation was stopped by addition of lysis buffer. Second messenger levels were determined using a homogeneous immunoassay method with time-resolved FRET detection (IP-One HTRF, Cisbio International) according to protocols provided by the supplier. Sample fluorescence was measured with a Nanoscan plate reader (IOM, Berlin). Each data point represents the average of quadruplicate determinations and each experiment was performed at least two times independently.

NC[C@H](O)c1ccc(O)c(O)c1 [NE, norepinephrine]
EC50 IP (HEK293/EBNA cells): BQL
cellular concentration of inositol phosphates IP1, IP2 and IP3 (α1A-AR [1]): concentration-dependent increases
time to peak response amplitude post-agonist addition (α1A-AR [2]): ≤ 10 s
cellular levels of inositol phosphates IP1, IP2 and IP3 (α1A-AR [3]): concentration-dependent increases

Cc1c[nH]c(=O)n(CCCN2CCN(c3ccccc3OCC(F)(F)F)CC2)c1=O [RS100329]
effect of antagonist on Iso-evoked Ca2+ response (α1A-AR [4]): virtually complete blocking of the low potency phase
effect of antagonist on Iso-evoked Ca2+ response (β2-AR): ineffective
pKB (α1A-AR [5]): 9.6
effect of antagonist pretreatment on Iso Ca2+ response (α1A-AR [6]): blocked
effect of antagonist on A-61603-stimulated IP accumulation (α1A-AR [7]): significantly attenuated IP accumulation

CC(C)NCC(O)COc1ccc(CC(N)=O)cc1 (centres unmarked) [atenolol]
effect of antagonist on Iso-evoked Ca2+ response (α1A-AR [4]): had no effect

CC(C)NCC(O)COc1cccc2ccccc12 (centres unmarked) [propranolol]
effect of antagonist pretreatment on Iso Ca2+ response (α1A-AR [6]): insensitive
